The record followed here is paper PMC9848282, “Antinociceptive activity of doliroside B” (Pharmaceutical Biology, 2023).

For assay [1], the target named is Nav1.2 (Homo sapiens, UniProt Q99250). Format: cell-based.
Assay [2] relates to hot plate-induced nociception in mice. Description: Eddy's hot plate test. Format: in vivo. On the procedure: Female Kunming mice (20 ± 2 g) from Chengdu Dossy Experiment Animal Co., Ltd. (Sichuan, China) were used for antinociceptive experiments. These animals were kept under a constant temperature (23 ± 1 °C), humidity (40–70%), airflow speed ([…]) and noise (≤ 60 db), and maintained under a 12 h light-dark cycle. After the experiment is completed, mice were euthanized humanely. All the animal experiments were approved by the Institutional Animal Care and Use Committee of Yunnan Minzu University (permit no. 20200608).
This was performed according to a previously reported procedure (Eddy and Leimbach [1953]). The pain threshold was defined as the duration from the beginning of placing mice on the plate to the mice jumping, licking, or shaking its paws. Because the scrotum of male mice is saggy, which can be stimulated by hot plate, healthy female mice with pain threshold less than 20 s were used for hot plate test. […] After administration of the test compounds, the pain threshold was recorded at 0, 30, 60, 90, and 120 min. Among the tests in the absence and presence of NAL (5 mg/kg), i.p. injection of NAL was performed 10 min before administration of testing compounds. […]
Background: In hot-plate and tail-flick tests a longer latency is read as antinociception.

The test system of assay [3] is formalin-induced nociception in mice. Description: Formalin test. It counts as in vivo.
Assay [4] concerns the target TRPV1 channel (Homo sapiens, UniProt Q8NER1). Nature of the assay: cell-based. Format: cell-based.
Assay [5] relates to acetic acid-induced writhing in Kunming mice. Nature of the assay: Acetic acid-induced writhing test. Format: in vivo. The note with it: for ED50: Mus musculus, read-out: ED50 (median effective dose); for effect of NAL on the reduction of writhing number: absence vs presence of NAL 5 mg/kg i.p., MOP 1, IND 10, ASA 100, DB 5, DBDS 5 mg/kg, Figure 4; for fold weaker than DBDS (ED50): writhing test, ED50 compared with DBDS. In general terms: Writhing tests count abdominal constrictions after an irritant is injected.

Assay [6] relates to NO production. Description: cells. It counts as cell-based. The following applies: Mus musculus, RAW264.7; 25 µmol/L (positive control); LPS-stimulated, 24 h.
The mark [7] stands for this setting: hot plate test, absence vs presence of NAL 5 mg/kg i.p.
Where [8] appears, read: formalin test, absence vs presence of NAL 5 mg/kg i.p., MOP 1, IND 10, ASA 100, DB 20, DBDS 20 mg/kg, Figure 5.

Where “and” joins values, the source holds several entries; their conditions need not be identical. Equal entries are not always repeated.

In general, IC50 refers to the concentration at which inhibition is half-maximal. The term ED50 denotes the dose at which the effect has come halfway, by size or by number of responders. What is called inhibition is the percentage by which the read-out fell short of the control. A low value points to a response near the control.

Chain of TRPV1 channel (Q8NER1 whole entry): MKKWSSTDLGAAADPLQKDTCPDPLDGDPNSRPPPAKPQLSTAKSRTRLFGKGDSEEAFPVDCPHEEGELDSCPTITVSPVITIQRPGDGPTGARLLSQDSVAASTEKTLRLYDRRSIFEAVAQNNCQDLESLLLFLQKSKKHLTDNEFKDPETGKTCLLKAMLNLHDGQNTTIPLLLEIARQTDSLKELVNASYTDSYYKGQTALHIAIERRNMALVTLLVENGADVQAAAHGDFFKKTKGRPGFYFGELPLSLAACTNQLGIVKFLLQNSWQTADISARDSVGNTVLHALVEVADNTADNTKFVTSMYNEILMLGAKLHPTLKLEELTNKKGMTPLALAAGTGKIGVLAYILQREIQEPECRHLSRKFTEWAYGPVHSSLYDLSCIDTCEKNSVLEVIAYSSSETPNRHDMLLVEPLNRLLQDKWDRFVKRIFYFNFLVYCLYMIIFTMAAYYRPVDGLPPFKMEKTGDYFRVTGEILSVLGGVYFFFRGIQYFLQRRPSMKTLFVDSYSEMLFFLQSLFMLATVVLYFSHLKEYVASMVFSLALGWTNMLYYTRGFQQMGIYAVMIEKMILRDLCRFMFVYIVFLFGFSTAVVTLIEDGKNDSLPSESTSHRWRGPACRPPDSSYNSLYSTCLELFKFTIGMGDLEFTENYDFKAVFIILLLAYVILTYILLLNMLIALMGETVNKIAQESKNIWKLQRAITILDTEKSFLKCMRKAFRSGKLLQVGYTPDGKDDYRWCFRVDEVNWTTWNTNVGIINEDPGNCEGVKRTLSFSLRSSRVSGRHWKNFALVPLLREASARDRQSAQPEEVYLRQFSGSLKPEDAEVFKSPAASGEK
Chain of Nav1.2 (Q99250 whole entry): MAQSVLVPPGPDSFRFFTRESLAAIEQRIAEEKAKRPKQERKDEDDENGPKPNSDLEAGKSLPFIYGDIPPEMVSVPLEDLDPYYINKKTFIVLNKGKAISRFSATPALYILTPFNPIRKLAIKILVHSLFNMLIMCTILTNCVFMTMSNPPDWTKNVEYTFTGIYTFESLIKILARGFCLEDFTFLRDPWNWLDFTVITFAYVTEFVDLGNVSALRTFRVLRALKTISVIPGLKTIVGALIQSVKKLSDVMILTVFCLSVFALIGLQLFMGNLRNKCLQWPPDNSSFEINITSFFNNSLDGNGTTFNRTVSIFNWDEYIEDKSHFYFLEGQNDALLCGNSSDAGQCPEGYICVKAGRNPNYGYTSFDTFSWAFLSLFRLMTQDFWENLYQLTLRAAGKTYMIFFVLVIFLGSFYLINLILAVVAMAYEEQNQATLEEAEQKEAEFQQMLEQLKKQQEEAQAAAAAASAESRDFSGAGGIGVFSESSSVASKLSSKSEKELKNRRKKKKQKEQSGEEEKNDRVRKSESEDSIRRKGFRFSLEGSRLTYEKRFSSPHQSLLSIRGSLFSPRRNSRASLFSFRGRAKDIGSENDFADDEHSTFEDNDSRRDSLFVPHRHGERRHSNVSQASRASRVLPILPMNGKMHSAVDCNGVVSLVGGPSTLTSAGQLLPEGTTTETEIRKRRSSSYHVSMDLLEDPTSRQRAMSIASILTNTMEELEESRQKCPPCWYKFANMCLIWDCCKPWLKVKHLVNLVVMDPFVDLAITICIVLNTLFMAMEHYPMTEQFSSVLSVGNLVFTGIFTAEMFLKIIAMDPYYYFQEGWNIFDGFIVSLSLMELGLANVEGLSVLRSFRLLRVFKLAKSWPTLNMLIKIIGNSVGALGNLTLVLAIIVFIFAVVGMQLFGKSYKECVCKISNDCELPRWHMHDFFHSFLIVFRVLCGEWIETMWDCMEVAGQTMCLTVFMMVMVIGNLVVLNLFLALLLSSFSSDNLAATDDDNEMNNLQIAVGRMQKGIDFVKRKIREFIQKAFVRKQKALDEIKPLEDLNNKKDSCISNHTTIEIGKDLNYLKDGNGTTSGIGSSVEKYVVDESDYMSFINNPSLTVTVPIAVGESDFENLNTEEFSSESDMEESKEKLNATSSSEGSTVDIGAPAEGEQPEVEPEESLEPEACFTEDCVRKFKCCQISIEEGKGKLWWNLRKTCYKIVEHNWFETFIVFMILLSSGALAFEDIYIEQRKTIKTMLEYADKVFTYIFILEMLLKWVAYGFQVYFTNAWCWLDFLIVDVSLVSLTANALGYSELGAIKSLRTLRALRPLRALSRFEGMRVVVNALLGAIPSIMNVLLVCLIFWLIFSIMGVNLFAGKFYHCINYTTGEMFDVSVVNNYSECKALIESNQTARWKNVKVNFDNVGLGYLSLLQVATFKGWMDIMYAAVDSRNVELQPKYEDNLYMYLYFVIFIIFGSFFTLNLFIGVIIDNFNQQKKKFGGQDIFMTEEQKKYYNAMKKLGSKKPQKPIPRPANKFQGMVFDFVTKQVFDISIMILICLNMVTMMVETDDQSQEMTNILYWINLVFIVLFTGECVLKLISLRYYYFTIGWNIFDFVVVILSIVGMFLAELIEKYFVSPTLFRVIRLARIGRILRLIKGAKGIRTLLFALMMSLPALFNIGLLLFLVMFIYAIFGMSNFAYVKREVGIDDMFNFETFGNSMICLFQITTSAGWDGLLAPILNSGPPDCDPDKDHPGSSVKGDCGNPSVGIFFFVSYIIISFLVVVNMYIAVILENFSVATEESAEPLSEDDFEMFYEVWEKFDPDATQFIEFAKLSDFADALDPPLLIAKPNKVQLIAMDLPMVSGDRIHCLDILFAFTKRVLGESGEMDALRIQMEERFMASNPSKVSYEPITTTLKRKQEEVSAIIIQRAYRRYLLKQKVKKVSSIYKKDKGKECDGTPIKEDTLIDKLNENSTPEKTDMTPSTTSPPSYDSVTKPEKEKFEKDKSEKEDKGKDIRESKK

As for `NC1=N[C@H](O)[C@H]2[C@H]3O[C@]4(O)O[C@@H]([C@@H](O)[C@@]2(N1)[C@@H]4O)[C@]3(O)CO` [TTX, Tetrodotoxin], 0.016 ± 0.015 µM corresponded to half-maximal inhibition in assay [1] (IC50).
As to `CN1CC[C@]23c4c5ccc(O)c4O[C@H]2[C@@H](O)C=C[C@H]3[C@H]1C5` [MOP, morphine], the “effect of NAL on the antinociceptive effect” value in assay [2] (mouse, in vivo) is reported as “removed by NAL”; in assay [3] (mouse, in vivo), “removed by NAL”. The “inhibition of licking time” value in assay [3] (mouse, in vivo, ip, 1 mg/kg) is 55.3% and 75.9%.
In the case of `COc1cc(CNC(=O)CCCC/C=C/C(C)C)ccc1O` [capsaicin], in assay [4] (compound alone), the “direct effect on TRPV1 activity (compound alone)” value was “induced a significant activation”.
Consider `COc1ccc2c(c1)c(CC(=O)O)c(C)n2C(=O)c1ccc(Cl)cc1` [IND, indomethacin], for which the “inhibition of writhing number” value came to 58.7% in assay [5] (10 mg/kg oral, Figure 1(A) experiment) and 76.1% in assay [5] (20 mg/kg, dose-response Figure 1(D)). For the same compound, in assay [5] (writhing test in mice), the ED50 was determined as 5.91 mg/kg. The “effect of NAL on the reduction of writhing number” value in assay [5] was “Only a minor difference”. The “fold weaker than DBDS (ED50)” value in assay [5] is recorded as “approximately 5 fold”. The Pain threshold in assay [2] (10 mg/kg, absence of NAL, 0 min, Table 2) was 12.1 ± 2.9 s; in assay [2] (10 mg/kg, absence of NAL, 30 min, Table 2), 11.7 ± 3.0 s; in assay [2] (10 mg/kg, absence of NAL, 60 min, Table 2), 11.6 ± 2.2 s; in assay [2] (10 mg/kg, absence of NAL, 90 min, Table 2), 10.7 ± 2.1 s; in assay [2] (10 mg/kg, absence of NAL, 120 min, Table 2), 12.0 ± 3.2 s; in assay [2] (10 mg/kg, 0 min, Table 1) it was 11.3 ± 2.8 s. Besides, the Pain threshold in assay [2] (10 mg/kg, 30 min, Table 1) is on record as 11.7 ± 3.4 s; in assay [2] (10 mg/kg, 60 min, Table 1), 12.5 ± 3.0 s; in assay [2] (10 mg/kg, 90 min, Table 1) it was 12.1 ± 2.9 s; in assay [2] (10 mg/kg, 120 min, Table 1), 10.9 ± 2.9 s. The “effect of NAL on the antinociceptive effect” value in assay [2] (setting [7]) and in assay [3] (setting [8]) was “not effectively removed by NAL” each time. Moreover, the “inhibition of licking time” value in assay [3] (late phase (15-30 min), 10 mg/kg i.g.) is 57.3%.
`[H]/N=C(/NC)NCCC[C@H](N)C(=O)O` [L-NMMA, NG-Monomethyl-L-arginine acetate] came in with an inhibition at 25 µM in assay [6] of 73%.
For doliroside B [DB], the “inhibition of writhing number” value in assay [5] (5 mg/kg oral, dose-response Figure 1(B-D)) was 58.7%. In addition, in assay [5], the “effect of NAL on the reduction of writhing number” value is on record as “Only a minor difference”. Besides, the “ED50 (median effective dose)” value in assay [5] (writhing test in mice) worked out at 4.68 mg/kg. In addition, the “fold weaker than DBDS (ED50)” value in assay [5] was roughly 4 fold. In addition, the Pain threshold in assay [2] (2.5 mg/kg, 0 min, Table 1) was 12.0 ± 4.4 s; in assay [2] (2.5 mg/kg, 30 min, Table 1), 12.1 ± 3.7 s; in assay [2] (2.5 mg/kg, 60 min, Table 1) it was 12.7 ± 4.4 s; in assay [2] (2.5 mg/kg, 90 min, Table 1) it was 14.2 ± 4.7 s; in assay [2] (2.5 mg/kg, 120 min, Table 1) it was 12.4 ± 3.4 s; in assay [2] (5 mg/kg, 0 min, Table 1), 11.4 ± 2.9 s. For the same compound, the Pain threshold was found to be 12.0 ± 3.4 s in assay [2] (5 mg/kg, 30 min, Table 1); 10.2 ± 2.9 s in assay [2] (5 mg/kg, 60 min, Table 1); 12.6 ± 3.6 s in assay [2] (5 mg/kg, 90 min, Table 1); 10.9 ± 3.7 s in assay [2] (5 mg/kg, 120 min, Table 1); 10.4 ± 3.0 s in assay [2] (10 mg/kg, 0 min, Table 1); 14.6 ± 4.9 s in assay [2] (10 mg/kg, 30 min, Table 1). For the same compound, the Pain threshold in assay [2] (10 mg/kg, 60 min, Table 1) is listed as 16.4 ± 6.2 s; in assay [2] (10 mg/kg, 90 min, Table 1) it was 15.6 ± 4.2 s; in assay [2] (10 mg/kg, 120 min, Table 1) it was 12.6 ± 3.7 s; in assay [2] (20 mg/kg, absence of NAL, 0 min, Table 2), 11.8 ± 3.3 s; in assay [2] (20 mg/kg, absence of NAL, 30 min, Table 2) it was 19.6 ± 4.2 s; in assay [2] (20 mg/kg, absence of NAL, 60 min, Table 2) it was 21.7 ± 5.9 s. Moreover, the Pain threshold in assay [2] (20 mg/kg, absence of NAL, 90 min, Table 2) amounted to 18.0 ± 5.6 s; in assay [2] (20 mg/kg, absence of NAL, 120 min, Table 2), 15.2 ± 4.6 s; in assay [2] (20 mg/kg, 0 min, Table 1) it was 11.8 ± 3.3 s; in assay [2] (20 mg/kg, 30 min, Table 1), 18.8 ± 3.6 s; in assay [2] (20 mg/kg, 60 min, Table 1) it was 19.7 ± 5.3 s; in assay [2] (20 mg/kg, 90 min, Table 1) it was 18.1 ± 6.3 s. The compound also had a Pain threshold in assay [2] (20 mg/kg, 120 min, Table 1) of 13.8 ± 4.2 s. Moreover, the “effect of NAL on the antinociceptive effect” value in assay [2] (setting [7]) and in assay [3] (setting [8]) was “not effectively removed by NAL” each time.
For the compound `Oc1cc2c(cc1O)CN(C(=S)NCCc1ccc(Cl)cc1)CCC2` [capsazepine], the IC50 in assay [4] (TRPV1 inhibitor control) was determined as 7.3 ± 0.06 µM.
Turning to `CC(=O)Oc1ccccc1C(=O)O` [ASA, Acetylsalicylic acid], the “inhibition of writhing number” value in assay [5] (100 mg/kg oral, Figure 1(A) experiment) is 61.2%; in assay [5] (200 mg/kg, dose-response Figure 1(E)), 73.3%. In addition, in assay [5] (writhing test in mice), the ED50 was found to be 70.1 mg/kg. In addition, the “effect of NAL on the reduction of writhing number” value in assay [5] is “Only a minor difference”. For the same compound, the Pain threshold in assay [2] (100 mg/kg, absence of NAL, 30 min, Table 2) was determined as 20.3 ± 5.9 s; in assay [2] (100 mg/kg, absence of NAL, 60 min, Table 2) it was 19.8 ± 3.2 s; in assay [2] (100 mg/kg, absence of NAL, 90 min, Table 2), 14.1 ± 4.3 s; in assay [2] (100 mg/kg, 30 min, Table 1) it was 18.6 ± 5.2 s; in assay [2] (100 mg/kg, 60 min, Table 1) it was 17.8 ± 3.3 s; in assay [2] (100 mg/kg, 90 min, Table 1) it was 12.9 ± 4.0 s. The same compound displayed a Pain threshold in assay [2] (100 mg/kg, 120 min, Table 1) of 10.6 ± 2.8 s. In addition, the “effect of NAL on the antinociceptive effect” value in assay [2] (setting [7]) and in assay [3] (setting [8]) was “not effectively removed by NAL” throughout. Besides, the “inhibition of licking time” value in assay [3] (late phase (15-30 min), 100 mg/kg i.g.) is 64.8%.
